Measured values as given in patent publication US10688119B2, “Inhibitors of PCSK9 for treatment of lipoprotein metabolism disorders” (Aarhus Universitet, priority 2015, dated 2020).
Entries after “also recorded” stand apart in the source; their conditions may differ.

B1: mAb 5E11: rat monoclonal antibody against the HSPG binding domain; VH SEQ ID NO: 7, VK SEQ ID NO: 5 (antibody, V domains shown)
VH: EVQLQESGPGLVKPSQSLSLTCSVTGYTITSGYDWSWIRRFPGNTMEWMGDISYSGSTNYNPSLKSRVSITRDTSKNQFFLQLNSVTTGDTATYYCAKLPGWGQGTLVTVSS
VL: DVVLTQTPVFLSVTLGDQTSISCRSSQSLEYSDGYTYLEWYLQKPGQSPQLLIYEVSNRFSGVPDRFIGSGSGTDFTLKISRVEPEDLGVYYCFQGTHDPLTFGSGTKLEIK

Experiments:
PCSK9 = PCSK9 (Homo sapiens, UniProt Q8NBP7); assay: Microscale Thermophoresis (MST) equilibrium binding to PCSK9; conditions: 100 nM labelled PCSK9, PBS+0.05% Tween-20; read-out: KD (affinity for PCSK9, MST)
PCSK9, sequence (Q8NBP7 153-692): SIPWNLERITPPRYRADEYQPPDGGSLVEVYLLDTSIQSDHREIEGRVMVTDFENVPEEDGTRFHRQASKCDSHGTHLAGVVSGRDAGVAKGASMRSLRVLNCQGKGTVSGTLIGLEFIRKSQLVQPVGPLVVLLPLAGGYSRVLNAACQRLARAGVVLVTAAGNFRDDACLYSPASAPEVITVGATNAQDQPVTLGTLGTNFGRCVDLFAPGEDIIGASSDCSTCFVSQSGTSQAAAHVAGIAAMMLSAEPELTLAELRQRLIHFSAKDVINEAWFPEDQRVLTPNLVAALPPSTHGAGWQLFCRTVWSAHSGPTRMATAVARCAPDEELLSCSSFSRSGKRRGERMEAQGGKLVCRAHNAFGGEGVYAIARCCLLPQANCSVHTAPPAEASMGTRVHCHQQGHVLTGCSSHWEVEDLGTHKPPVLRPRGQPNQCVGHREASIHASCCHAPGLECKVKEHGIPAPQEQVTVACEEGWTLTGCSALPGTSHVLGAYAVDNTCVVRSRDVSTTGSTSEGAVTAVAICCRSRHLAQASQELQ
Description: PCSK9 was labeled using the MO-L003 Monolith Blue-NHS labeling kit (NanoTemper Technologies) and a labeling efficiency of 1:1 molar ratio of protein to dye was achieved. PCSK9 was applied at a final concentration of 100 nM. […] MST measurements were performed in standard-treated capillaries (NanoTemper Technologies) on a Monolith NT.115 instrument (NanoTemper Technologies) using 20% LED and 80% MST power. Laser on and off times were 5 s and 35 s, respectively. Negative controls were performed using 100 nM of labelled PCSK9 in MST buffer in all 16 capillaries under the same conditions as mentioned above. […] For each binding partner, the sigmoidal dose-response curves were fitted with GraphPad Prism 6 to yield an average KD value.

[1] = patients with elevated serum cholesterol, oral or subcutaneous Pentosan-polysulfate
Description: The patient receives subcutaneous injections of 25-500 mg of the composition at intervals of 1-28 days.
A patient with elevated LDL cholesterol is prescribed a statin treatment. […] The patient is then prescribed a treatment with subcutaneous injections of 25-500 mg of a composition comprising a humanized antibody directed against the HSPG binding site in human PCSK9. The injections take place at intervals of 1-28 days.
A patient with elevated LDL cholesterol levels is prescribed administration of a small molecule compound that is designed to block the HSPG binding site in human PCSK9. The compound is administered orally at a dosis of 0.1-30 mg/kg.
In addition to the statin, the patient is administered a compound inhibiting binding of HSPGs to PCSK9. The administration occurs weekly and with a low dose (25-150 mg) of the compound in combination with statins.
Cholesterol levels are then measured.

[2] = in vivo; cited from earlier work
LDLR in HepG2 cells = assay: LDLR levels in HepG2 cells by Western blot/densitometry (PCSK9 induced LDLR degradation)
Description: Purified PCSK9 variants were tested in a cell assay to test their ability to induce degradation of LDLR compared to wild-type PCSK9. Induction of LDLR degradation was analyzed by incubation of HepG2 cells with wild type PCSK9 (WT) or the above PCSK9 mutants and LDLR levels were assessed by Western blotting. HepG2 cells were seeded at a density 250.000 cells per well in 12-well plates. […] Cells were harvested and lysed following 18 hours incubation and LDLR levels were assessed by Western blotting and quantification by densitometry.
The PCSK9 inhibitory effect of overnight incubation with suramin (0-200 μg/ml) was tested in HepG2 cells (FIG. 9 A-B).

[3] = molecular target: T1, R93R96R97R104R105H139 PCSK9 mutant and variants (Homo sapiens, UniProt Q8NBP7, H139A/R104A/R105A/R93A/R96A/R97A); assay: immunoprecipitation of 35S-mutant PCSK9 and PCSK9 variants; type: binding; conditions: 500 μl conditioned hybridoma media
T1 construct: expressed in transfected cells
Description: (§1) Western blot of GAPDH is shown as loading control. (B) Western Blot showing LDLR levels in liver of mice 1 hour afterintravenous administration of 10 μg PCSK9 alone or in combination with 50 U Heparin. 50 μg membrane preparations were loaded. As control is shown Western Blot for sortilin, a PCSK9 receptor previously shown not to be target of PCSK9 induced degradation. (C) Quantification of B) Bands were quantified by densitometry and dot plot show the individual level of each sample in percent of vehicle (0.9% NaCl) injected controls with mean values and SEM. […] (D) Autoradiography (16 h exposure) showing immunoprecipitation of native human ^35S labeled PCSK9 by serum (1 μl) from three rats immunized with DNA encoding rat PCSK9 with human HSPG binding domain. As negative controls were used preimmune serum from the animals. (E) Western Blot showing LDLR in HepG2 cells after overnight incubation with preimmune or immune IgG (1 μg/ml). […] (F) Autoradiography (16 h exposure) showing immunoprecipitation of human ^35S-PCSK9 by 24 individual mAbs (500 μl conditioned hybridoma media) selected in ELISA screening performed by Aldevron. […] (G) Bar graphs showing LDLR levels (average of 2-4 experiments with SEM) in HepG2 cells incubated with mAbs (1:10 dilution of conditioned hybridoma media) as analysed by Western Blot. Twelve individual mAb clones give an approximately two-fold increase LDLR. (H) Autoradiography (16 h exposure) showing immunoprecipitation of human ^35S-mutant PCSK9 (with R93R96R97R104R105H139 mutated to alanine residues) by 12 individual mAbs (500 μl conditioned hybridoma media) all showing PCSK9 inhibitory effect. As control was used a polyclonal antibody (pAb, AF3888 from R&D systems). […] As control was used R&D Systems AF3888 (pAb).
(§2) These 12 clones were tested to see whether they can bind an R93R96R97R104R105H139 PCSK9 mutant (FIG. 8H).

[4] = tested on: R93R96R97R104R105H139 PCSK9 mutant and variants; assay: as above; type: binding, human; conditions: WT, R96R97, R104R105, R93R96R97H139, R93R96R97R104R105H139
Description: as §1, §2

| binding of R93R96R97R104R105H139 PCSK9 mutant (immunoprecipitation) [3] | Molecule | Kd (PCSK9) [µM] | serum cholesterol levels [1] | median time of absorption from the digestive tract after an oral dose [2] [h] | plateau of cellular LDLR compared to vehicle control (LDLR in HepG2 cells; dose-dependent, HepG2 cells) | immunoprecipitation of 35S-PCSK9 WT and variants (epitope) [4] | increase of cellular LDLR (LDLR in HepG2 cells; mAbs, 1:10 dilution of conditioned hybridoma media) |
| --- | --- | --- | --- | --- | --- | --- | --- |
|  | pentosan [pentosan sulfate] | 381 | decreased serum cholesterol levels | 2 | around 400% |  |  |
| not able to bind this mutant | B1 |  |  |  |  | recognize only WT PCSK9; also recorded: recognize epitopes within the HSPG binding domain | approximately two fold |
